Assay results reported in PubChem BioAssay AID1918939 (Molecular Pharmacology Branch, DTP, NCI, 2023).
“And” between values parts separate entries of the source, which are not always exact repeats. Equal entries are not always repeated.

Tested on: 653999-131-R-J2-PDC complex spheroid viability
Assay: Anticancer human tumor 653999-131-R-J2-PDC patient-derived lung adenocarcinoma cell line growth inhibition
Details: for viability, T/C: stronger effect = lower value
Source text: Multicellular complex tumor spheroid response to LSD1 Inhibitor Iadademstat in combination with a variety of drugs and investigational agents in selected tumor cell lines
The current study was undertaken to assess response to LSD1 inhibitors in combination with standard-of-care drugs and investigational agents in solid tumor complex spheroid models as well as in the K-562 leukemia. Complex spheroids include a stromal component modeled by human endothelial cells (HUVEC) and fibroblasts modeled by human mesenchymal stem cells (MSCs). The concentration ranges selected for each drug and investigational agent were based upon clinically achievable concentrations if the clinical Cmax of the agent was known.
Compounds. The drugs and investigational agents used in this study are listed on Table 1. All of the agents used, including staurosporine (NSC755774) and gemcitabine (NSC613327), were obtained from the Developmental Therapeutics Program, NCI. FDA-approved anticancer drugs are available from the NCI at http://dtp.nci.nih.gov/branches/dscb/oncology_drugset_explanation.html. Drugs and investigational agents were >95% pure by proton nuclear magnetic resonance (NMR) and liquid chromatography/mass spectrometry (LC/MS). Stock solutions were prepared at 400x in DMSO, stored at -70 degrees C, and diluted in fresh medium prior to their use. The final concentration of DMSO in cell culture wells never exceeded 0.25% (v/v). The FDA-approved anticancer drug set is available from the Developmental Therapeutics Program at https://dtp.cancer.gov/organization/dscb/obtaining/available_plates.htm. All drugs and investigational agents were tested over a range starting from a high concentration at or near the clinical Cmax and decreasing in half-log increments. If the clinical Cmax for an agent had not been determined, the highest concentration tested was 10 microM.
Cell Lines. The patient-derived cancer cell (PDC) lines: 292921-168-R-J2-PDC, K24384-001-R-PDC, and 521955-158-R2-J5-PDC pancreatic carcinomas, 556581-035-R-J1 ovarian carcinoma, 324938-238-R-J1-PDC, 855422-203-R-J1-PDC and 883617-216-R-J1-PDC urothelial bladder carcinomas, 743489-274-T-PDC renal cell carcinoma, 138582-R-J1 Merkel cell tumor, K60290-347-R-J1 and K57222-313-R-J1-PDC glioblastomas, 653999-131-R-J2-PDC, LG0703-F948-PDC, and 349418-098-R-PDC non-small cell lung carcinomas, 885512-296-R-J2-PDC, 171881-019-R-J1-PDC breast carcinomas and 186277-243-T-J2-PDC and 233499-124-R-J2-PDC colon carcinomas were obtained from the NCI Patient-Derived Models Repository (PDMR, https://pdmr.cancer.gov). The established cell lines NCI/ADR-RES (RRID:CVCL_14520 and OVCAR-5 (RRID:CVCL_1628) ovarian carcinomas, 786-O (RRID:CVCL_1051) and A498 (RRID:CVCL_A498) renal cell carcinoma, NCI-H211 (ATCC, cat. CRL-5824; RRID:CVCL_1529), NCI-H196 (ATCC, cat. CRL-5823, RRID:CVCL_1509), SW 1271 (ATCC, cat. CRL-2177, RRID:CVCL_1716) and NCI-H1876 (ATCC, cat. CRL-5902, RRID:CVCL_1503) small cell lung carcinomas, MDA-MB-231 (RRID:CVCL_0062) and MDA-MB-468 (RRID:CVCL_0419)breast carcinomas (10-12). Pooled donor human umbilical vein endothelial cells (HUVEC, Lonza, cat. CC-2519) and human mesenchymal stem cells (hMSC, Lonza, cat. PT-2501) were purchased from Lonza (Walkersville, MD).
Cell Culture. All cells were maintained in an incubator at 37 degrees C and 5% CO2 with 95% humidity. The PDC lines were cultured according to standard operating procedures established by the NCI PDMR (https://pdmr.cancer.gov). Briefly all PDCs were thawed and cultured in Matrigel-coated flasks prepared with a working solution of 1X Ham's F-12 nutrient mix, without supplementation (Invitrogen, Waltham, MA, cat. 11765054), 100 U/mL penicillin-streptomycin (Invitrogen, cat. 15140122), and 2.5% Matrigel (Corning Inc., Corning, NY, cat. 354248) for the first three passages. […]
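Also: spheroids exposed to agents for seven days before readout.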

Compound | IC50 (curve of compound) | viability, T/C (compound 0.0316 µM) | viability, T/C (compound 0.1 µM) | viability, T/C (compound 0.316 µM) | viability, T/C (compound 1 µM) | viability, T/C (compound 0.00949 µM) | viability, T/C (compound 0.03 µM) | viability, T/C (compound 0.0949 µM) | viability, T/C (compound 0.3 µM) | further results
COc1ccc([C@@H](O)c2cc(-c3ncnc4cc(N5CCOCC5)ccc34)c(F)cc2Cl)nn1 | 2190 nM and 2880 nM | 101% and 104% | 93.2% and 96.7% | 77.3% and 87.9% | 61.9% and 64.3% | – | – | – | – | viability, T/C (compound 3.16 µM): 44.9% and 50.9%; viability, T/C (compound 10 µM): 29.5% and 30.6%
NC1CC1c1ccc(-c2cccc(O)c2)cc1 (configuration not stated) | – | – | – | – | – | – | – | – | – | IC50 (compound alone, run of 02/01/2022): > 10000 nM
NC1CCC(NC2CC2c2ccccc2)CC1 (configuration not stated) | – | – | – | 85.8% and 90% | 86.8% [middle of 25 runs] | – | – | – | – | IC50 (compound alone, run of 01/18/2022): > 10000 nM
Nc1ccn(C2OC(CO)C(O)C2(F)F)c(=O)n1 (configuration not stated) | – | – | – | – | – | 49% and 73.2% | 38.4% and 57.3% | 37.5% and 50.2% | 34.7% and 50.1% | viability, T/C (compound 0.000949 µM): 64.7% and 96.4%; viability, T/C (compound 0.003 µM): 56.8% and 94.6%
Nc1ncn(C2CC(O)C(CO)O2)c(=O)n1 (configuration not stated) | > 1000 nM | 83.9% and 95.3% | 78.7% and 96.2% | 80.5% and 91.1% | 79.3% and 85.2% | – | – | – | – | viability, T/C (compound 0.00316 µM): 89% and 109%; viability, T/C (compound 0.01 µM): 105% and 103%
Nc1ncn(C2CC(O)C(CO)S2)c(=O)n1 (configuration not stated) | > 300 nM | – | – | – | – | 103% and 100% | 76.5% and 87.5% | 76.6% and 87.2% | 62.8% and 79.2% | viability, T/C (compound 0.000949 µM): 96% and 102%; viability, T/C (compound 0.003 µM): 96.2% and 104%
O=C(C=Cc1cccc(S(=O)(=O)Nc2ccccc2)c1)NO | 401 nM and > 3000 nM | – | – | – | – | 87.5% and 110% | 96.6% and 99.4% | 75.9% and 90.7% | 54.9% | viability, T/C (compound 0.949 µM): 30.9% and 11.4%
O=C(C=Cn1cnc(-c2cc(C(F)(F)F)cc(C(F)(F)F)c2)n1)NNc1cnccn1 | 16.9 nM and 76.1 nM | 43.4% and 58.5% | 40.6% and 47.5% | 31.4% and 38.6% | 21.8% and 36.8% | – | – | – | – | viability, T/C (compound 0.00316 µM): 63.9% and 63.1%; viability, T/C (compound 0.01 µM): 51.8% and 58%
O=C(c1cc(Cc2n[nH]c(=O)c3ccccc23)ccc1F)N1CCN(C(=O)C2CC2)CC1 | > 10000 nM | 105% and 108% | 103% and 108% | 94.7% and 105% | 92.7% and 102% | – | – | – | – | viability, T/C (compound 3.16 µM): 79% and 91.8%; viability, T/C (compound 10 µM): 68.4% and 69.3%

The next lines start with results.

IC50 (curve of compound) | Compound | viability, T/C (compound 0.0316 µM) | viability, T/C (compound 0.1 µM) | viability, T/C (compound 0.316 µM) | viability, T/C (compound 1 µM) | viability, T/C (compound 0.00949 µM) | viability, T/C (compound 0.03 µM) | viability, T/C (compound 0.0949 µM) | viability, T/C (compound 0.3 µM) | further results
> 100 nM | Cn1ncnc1C1c2n[nH]c(=O)c3cc(F)cc(c23)NC1c1ccc(F)cc1 (configuration not stated) | 89.6% and 93.2% | 94% and 91.3% | – | – | – | – | – | – | viability, T/C (compound 0.000316 µM): 97.3% and 103%; viability, T/C (compound 0.001 µM): 92.2% and 108%; viability, T/C (compound 0.00316 µM): 96% and 98.3%; viability, T/C (compound 0.01 µM): 99.2% and 101%
> 3000 nM | NS(=O)(=O)OCC1CC(n2ccc3c(NC4CCc5ccccc54)ncnc32)CC1O (configuration not stated) | – | – | – | – | 115% and 114% | 98.1% and 121% | 91.9% and 121% | 99.7% and 70.9% | viability, T/C (compound 0.949 µM): 54.7% and 62.8%; viability, T/C (compound 3 µM): 55.3% and 60%
402 nM and 414 nM | Nc1ccccc1NC(=O)c1ccc(CNC(=O)OCc2cccnc2)cc1 | – | – | – | – | 100% and 112% | 73.8% and 105% | 75% and 76.2% | 56.3% and 69.2% | viability, T/C (compound 0.949 µM): 38.6% and 20.9%; viability, T/C (compound 3 µM): 11.8% and 1.21%
